Experiments:
[1] = for Stability: indomethacin: to alkalies, ketoprofen and flurbiprofen: to the gel base
[2] = orally administered; cited from earlier work
gastric mucous membrane = assay: Gastric mucous membrane troubles in rats (ulceration); assay type: in vivo, rats (Wister strain, male); settings: oral, 1 mg/Kg, 6 hours
Protocol: Anti-inflammatory activity on gastric mucous membrane troubles in rats
Male rats of Wister strain, each weighing about 200 g, were fasted except for unlimited feeding of water for a time period of 24 hours, after which each of the test compounds shown in Table 4 was administered to the rats so fasted. […] Six hours after said administration, the test animals were slaughtered to remove their stomachs which were incised along the greater curvature thereof to visually observe whether or not an ulcer was formed at the gastric mucous membrane of their stomachs. The ulceration ratio (%) was calculated from the following equation: [formula]

SMILES	Solubility in the gel base ([1]; in words)	Stability [1]	Crystallization ([1]; gel base, in words)	Medicinal efficacy compared with the effective ingredient of the composition of this invention [2]	Ulceration ratio (gastric mucous membrane)	Ulceration ratio (gastric mucous membrane; listed as indomethacin powder)
CC(C(=O)O)c1ccc(-c2ccccc2)c(F)c1 (centres unmarked) [flurbiprofen]	excellent	excellent in stability	–	–	–	–
COc1ccc2c(c1)c(CC(=O)O)c(C)n2C(=O)c1ccc(Cl)cc1 [indomethacin]	inferior in solubility in the gel base	unstable to alkalies	apt to crystallize out	equal or slightly superior in medicinal efficacy	–	–
COc1ccc2c(c1)c(CC(=O)O)c(C)n2C(=O)c1ccc(Cl)cc1 [Indomethacin powder]	–	–	–	–	100.0%	100%

Reference: US4393076A, “Anti-inflammatory and analgesic gel composition” (priority 1980, dated 1983)
